Holding throughout (experiment): relative viability (nuclei count vs DMSO), 5 days (fraction); higher = more cells survive
Compound in the assay “VX-702 + Vorinostat”: NC(=O)c1ccc(N(C(N)=O)c2c(F)cccc2F)nc1-c1ccc(F)cc1F [VX-702] + O=C(CCCCCCC(=O)Nc1ccccc1)NO [Vorinostat] (partner 1 µM)
An outline of the steps:
(§1)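 Lung cancer cell lines in 1536-well plates were dosed by pin tool the day after seeding, either with one drug alone or with a fixed anchor-drug dose plus five library-drug doses (not always all listed) in √10 steps. After 5 days, cells were fixed and their nuclei stained in one step (final 0.05% Triton X-100, 1% formaldehyde, 1 ug/ml Hoechst), then counted on 4× images. Relative viability is the nuclei count in treated wells divided by that in vehicle wells. Values are medians of duplicate plates.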

Compound in the assay “VX-702 + Palbociclib”: NC(=O)c1ccc(N(C(N)=O)c2c(F)cccc2F)nc1-c1ccc(F)cc1F [VX-702] + CC(=O)c1c(C)c2cnc(Nc3ccc(N4CCNCC4)cn3)nc2n(C2CCCC2)c1=O [Palbociclib] (partner 0.5 µM)
Put shortly:
as §1

Compound in the assay “Dabrafenib + Decitabine”: CC(C)(C)c1nc(-c2cccc(NS(=O)(=O)c3c(F)cccc3F)c2F)c(-c2ccnc(N)n2)s1 [Dabrafenib] + Nc1ncn([C@H]2C[C@H](O)[C@@H](CO)O2)c(=O)n1 [Decitabine] (partner 2 µM)
Put shortly: as §1

Compound in the assay “Dabrafenib + AZD7762”: CC(C)(C)c1nc(-c2cccc(NS(=O)(=O)c3c(F)cccc3F)c2F)c(-c2ccnc(N)n2)s1 [Dabrafenib] + NC(=O)Nc1cc(-c2cccc(F)c2)sc1C(=O)N[C@H]1CCCNC1 [AZD7762] (partner 0.2 µM)
Put shortly: as §1

Compound in the assay “Dabrafenib + Phenformin”: CC(C)(C)c1nc(-c2cccc(NS(=O)(=O)c3c(F)cccc3F)c2F)c(-c2ccnc(N)n2)s1 [Dabrafenib] + N=C(N)NC(=N)NCCc1ccccc1 [Phenformin] (partner 250 µM)
An outline of the steps: as §1

Compound in the assay “Dabrafenib + Foretinib”: CC(C)(C)c1nc(-c2cccc(NS(=O)(=O)c3c(F)cccc3F)c2F)c(-c2ccnc(N)n2)s1 [Dabrafenib] + COc1cc2c(Oc3ccc(NC(=O)C4(C(=O)Nc5ccc(F)cc5)CC4)cc3F)ccnc2cc1OCCCN1CCOCC1 [Foretinib] (partner 0.25 µM)
An outline of the steps:
as §1

The source of these data is the supplement of paper PMC10307832.

As for SW 900, the relative viability with VX-702 + Vorinostat (first compound 0.02 µM) is 0.492; in the assay with VX-702 + Vorinostat (first compound 0.2 µM), 0.444; with VX-702 + Vorinostat (first compound 0.6325 µM), 0.558; in the assay with VX-702 + Vorinostat (first compound 2 µM), 0.516; with VX-702 + Palbociclib (first compound 0.02 µM), 0.577; with VX-702 + Palbociclib (first compound 0.2 µM) it was 0.566. Moreover, the relative viability in the assay with VX-702 + Palbociclib (first compound 0.6325 µM) is 0.575; in the assay with VX-702 + Palbociclib (first compound 2 µM) it was 0.539; with Dabrafenib + Decitabine (first compound 0.009487 µM), 0.35; in the assay with Dabrafenib + Decitabine (first compound 0.09487 µM) it was 0.486; with Dabrafenib + Decitabine (first compound 0.3 µM), 0.394; in the assay with Dabrafenib + AZD7762 (first compound 0.009487 µM) it was 0.578. Moreover, the relative viability in the assay with Dabrafenib + AZD7762 (first compound 0.09487 µM) came to 0.845; in the assay with Dabrafenib + AZD7762 (first compound 0.3 µM) it was 0.875; with Dabrafenib + Phenformin (first compound 0.009487 µM), 0.579; with Dabrafenib + Phenformin (first compound 0.03 µM), 0.561; with Dabrafenib + Phenformin (first compound 0.3 µM), 0.86; with Dabrafenib + Foretinib (first compound 0.009487 µM), 0.905. Also, the relative viability in the assay with Dabrafenib + Foretinib (first compound 0.03 µM) amounted to 0.788; with Dabrafenib + Foretinib (first compound 0.3 µM) it was 0.856.
